Measured values published in publication PMC8972805, “Monomodular Pseudomonas aeruginosa phage JG004 lysozyme (Pae87) contains a bacterial surface-active antimicrobial peptide-like region and a possible substrate-binding subdomain” (Acta Crystallographica. Section D, Structural Biology, 2022).

Target: T1, Pae87 (Pseudomonas phage JG004, UniProt F4YDQ3)
T1 construct: gene PJG4_087; full length, 186 residues, N-terminal 6xHis tag (pET-28a(+), tag kept, up to two tag residues modelled), synthetic gene, expressed in E. coli BL21(DE3); one molecule in asymmetric unit of the complex
Assay: X-ray crystal structure of complex, […] Å
Format: binding
Settings: fragment from PAO1 peptidoglycan hydrolysed by Pae87; second site about 18 Å from catalytic site (helices 4, 5 and 7); Tris-HCl pH 8.0, PEG MME 5000

T1 sequence (F4YDQ3 entry or part of it): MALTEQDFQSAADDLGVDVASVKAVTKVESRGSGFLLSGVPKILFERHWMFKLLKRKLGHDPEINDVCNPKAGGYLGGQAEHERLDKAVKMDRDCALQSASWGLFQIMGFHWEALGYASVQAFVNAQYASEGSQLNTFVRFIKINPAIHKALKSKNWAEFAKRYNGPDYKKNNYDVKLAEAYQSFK

Compound: CC(=O)N[C@H]1[C@H](O[C@H]2[C@H](O[C@H](C)C(=O)N[C@@H](C)C(=O)N[C@H](CCC(=O)O)C(=O)O)[C@@H](NC(C)=O)C(O)O[C@@H]2CO)O[C@H](CO)[C@@H](O)[C@@H]1O (stereo partly shown) [peptidoglycan fragment]
- X-ray crystal structure of complex, 1.27 Å: the peptidoglycan fragment (comprised of linked NAG, MurNAc, L-alanine
